PubChem BioAssay AID1963861 (Molecular Pharmacology Branch, DTP, NCI, 2024)
Several values for one entry are separate records, joined by “and”; a condition that tells them apart may be missing. Identical values can stand only once.

Test system: 885724-159-R-J1-PDC KRAS PDC multicell spheroid viability
Experiment: Anticancer human tumor 885724-159-R-J1-PDC patient-derived pancreatic adenocarcinoma cell line growth inhibition [KRAS2]
Conditions: for viability, T/C: stronger effect = lower value
Outline: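 KRAS-mutant tumor cells were grown as spheroids with HUVEC endothelial cells and human MSCs as stroma. Targeted agents were tested alone and with KRAS pathway inhibitors. Doses started at or near clinical Cmax, or 10 microM, descending half-log.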

[1] = curve of first compound, second compound 0.1 µM
[2] = curve of first compound, second compound 0.316 µM
[3] = curve of first compound, second compound 1 µM
[4] = curve of first compound, second compound 3.16 µM
[5] = curve of first compound, second compound 10 µM
[6] = second compound 0.1 µM, first compound 0.000316 µM
[7] = second compound 0.1 µM, first compound 0.001 µM
[8] = second compound 0.1 µM, first compound 0.00316 µM
[9] = second compound 0.1 µM, first compound 0.01 µM
[10] = second compound 0.1 µM, first compound 0.0316 µM
[11] = second compound 0.1 µM, first compound 0.1 µM
[12] = second compound 0.316 µM, first compound 0.000316 µM
[13] = second compound 0.316 µM, first compound 0.001 µM
[14] = second compound 0.316 µM, first compound 0.00316 µM
[15] = second compound 0.316 µM, first compound 0.01 µM
[16] = second compound 0.316 µM, first compound 0.0316 µM
[17] = second compound 0.316 µM, first compound 0.1 µM
[18] = second compound 1 µM, first compound 0.000316 µM
[19] = second compound 1 µM, first compound 0.001 µM
[20] = second compound 1 µM, first compound 0.00316 µM
[21] = second compound 1 µM, first compound 0.01 µM
[22] = second compound 1 µM, first compound 0.0316 µM
[23] = second compound 1 µM, first compound 0.1 µM
[24] = second compound 3.16 µM, first compound 0.000316 µM
[25] = second compound 3.16 µM, first compound 0.001 µM
[26] = second compound 3.16 µM, first compound 0.00316 µM
[27] = second compound 3.16 µM, first compound 0.01 µM
[28] = second compound 3.16 µM, first compound 0.0316 µM
[29] = second compound 3.16 µM, first compound 0.1 µM
[30] = second compound 10 µM, first compound 0.000316 µM
[31] = second compound 10 µM, first compound 0.001 µM
[32] = second compound 10 µM, first compound 0.00316 µM
[33] = second compound 10 µM, first compound 0.01 µM
[34] = second compound 10 µM, first compound 0.0316 µM
[35] = second compound 10 µM, first compound 0.1 µM
[36] = second compound 0.1 µM, first compound 0.316 µM
[37] = second compound 0.1 µM, first compound 1 µM
[38] = second compound 0.1 µM, first compound 3.16 µM
[39] = second compound 0.1 µM, first compound 10 µM
[40] = second compound 0.316 µM, first compound 0.316 µM
[41] = second compound 0.316 µM, first compound 1 µM
[42] = second compound 0.316 µM, first compound 3.16 µM
[43] = second compound 0.316 µM, first compound 10 µM
[44] = second compound 1 µM, first compound 0.316 µM
[45] = second compound 1 µM, first compound 1 µM
[46] = second compound 1 µM, first compound 3.16 µM
[47] = second compound 1 µM, first compound 10 µM
[48] = second compound 3.16 µM, first compound 0.316 µM
[49] = second compound 3.16 µM, first compound 1 µM
[50] = second compound 3.16 µM, first compound 3.16 µM
[51] = second compound 3.16 µM, first compound 10 µM
[52] = second compound 10 µM, first compound 0.316 µM
[53] = second compound 10 µM, first compound 1 µM
[54] = second compound 10 µM, first compound 3.16 µM
[55] = second compound 10 µM, first compound 10 µM
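Further: spheroids exposed to agents for 7 days before readout.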

Cn1ncnc1[C@H]1c2n[nH]c(=O)c3cc(F)cc(c23)N[C@@H]1c1ccc(F)cc1 + CC1OCC2(CCN(c3cnc(Sc4ccnc(N)c4Cl)c(N)n3)CC2)C1N
IC50 [1]: > 100 nM
IC50 [2]: > 100 nM
IC50 [3]: > 100 nM
IC50 [4]: > 100 nM
IC50 [5]: > 100 nM
viability, T/C [6]: 84.8%
viability, T/C [7]: 86.1%
viability, T/C [8]: 85.2%
viability, T/C [9]: 87.9%
viability, T/C [10]: 78.5%
viability, T/C [11]: 78.7%
viability, T/C [12]: 76.4%
viability, T/C [13]: 78%
viability, T/C [14]: 78.2%
viability, T/C [15]: 79.1%
viability, T/C [16]: 71.8%
viability, T/C [17]: 69.7%
viability, T/C [18]: 78.6%
viability, T/C [19]: 74.5%
viability, T/C [20]: 71.4%
viability, T/C [21]: 68.5%
viability, T/C [22]: 69.2%
viability, T/C [23]: 73.6%
viability, T/C [24]: 70.1%
viability, T/C [25]: 72.6%
viability, T/C [26]: 69.8%
viability, T/C [27]: 67%
viability, T/C [28]: 62.5%
viability, T/C [29]: 58.8%
viability, T/C [30]: 62.7%
viability, T/C [31]: 65.5%
viability, T/C [32]: 64.8%
viability, T/C [33]: 59.9%
viability, T/C [34]: 61.7%
viability, T/C [35]: 61.4%

CC1(C)CCC(CN2CCN(c3ccc(C(=O)NS(=O)(=O)c4ccc(NCC5CCOCC5)c([N+](=O)[O-])c4)c(Oc4cnc5[nH]ccc5c4)c3)CC2)=C(c2ccc(Cl)cc2)C1 + CC1OCC2(CCN(c3cnc(Sc4ccnc(N)c4Cl)c(N)n3)CC2)C1N
IC50 [1]: 4310 nM
IC50 [2]: 3450 nM
IC50 [3]: 2850 nM
IC50 [4]: 1620 nM
IC50 [5]: 1210 nM
viability, T/C [10]: 88%
viability, T/C [11]: 88.3%
viability, T/C [36]: 89%
viability, T/C [37]: 74.8%
viability, T/C [38]: 58.2%
viability, T/C [39]: 29.7%
viability, T/C [16]: 82.3%
viability, T/C [17]: 83.8%
viability, T/C [40]: 75.4%
viability, T/C [41]: 74.2%
viability, T/C [42]: 51.7%
viability, T/C [43]: 22.1%
viability, T/C [22]: 77.8%
viability, T/C [23]: 75.2%
viability, T/C [44]: 68.5%
viability, T/C [45]: 62.2%
viability, T/C [46]: 51.1%
viability, T/C [47]: 17.6%
viability, T/C [28]: 64.1%
viability, T/C [29]: 63.7%
viability, T/C [48]: 63.2%
viability, T/C [49]: 57.4%
viability, T/C [50]: 39.7%
viability, T/C [51]: 12%
viability, T/C [34]: 58%
viability, T/C [35]: 58.3%
viability, T/C [52]: 60.5%
viability, T/C [53]: 53.5%
viability, T/C [54]: 30.4%
viability, T/C [55]: 3.18%

COc1cc2nccc(Oc3ccc(NC(=O)C4(C(=O)Nc5ccc(F)cc5)CC4)cc3)c2cc1OC + CNCc1ccccc1-c1csc(C(C)Nc2nc(C)nc3cc(OC)c(OC)cc23)c1
IC50 [1]: > 10000 nM
IC50 [2]: > 10000 nM
IC50 [3]: 1770 nM
IC50 [4]: < 31.6 nM
IC50 [5]: < 31.6 nM
viability, T/C [10]: 98.3%
viability, T/C [11]: 105%
viability, T/C [36]: 99.2%
viability, T/C [37]: 103%
viability, T/C [38]: 69.5%
viability, T/C [39]: 61.3%
viability, T/C [16]: 96.9%
viability, T/C [17]: 101%
viability, T/C [40]: 95.3%
viability, T/C [41]: 90%
viability, T/C [42]: 61.6%
viability, T/C [43]: 58.7%
viability, T/C [22]: 99%
viability, T/C [23]: 89.9%
viability, T/C [44]: 85.1%
viability, T/C [45]: 86.1%
viability, T/C [46]: 13.3%
viability, T/C [47]: 12.6%
viability, T/C [28]: 1.16%
viability, T/C [29]: 0.87%
viability, T/C [48]: 1.19%
viability, T/C [49]: 0.42%
viability, T/C [50]: 0.32%
viability, T/C [51]: 0.42%
viability, T/C [34]: 0.39%
viability, T/C [35]: 0.36%
viability, T/C [52]: 0.17%
viability, T/C [53]: 0.18%
viability, T/C [54]: 0.51%
viability, T/C [55]: 0.47%

Cn1ncnc1[C@H]1c2n[nH]c(=O)c3cc(F)cc(c23)N[C@@H]1c1ccc(F)cc1 + COc1cc2nc(C)nc(NC(C)c3cc(N)cc(C(F)(F)F)c3)c2cc1OC1CCOC1
IC50 [1]: > 100 nM
IC50 [2]: > 100 nM
IC50 [3]: > 100 nM
IC50 [4]: > 100 nM
IC50 [5]: < 0.316 nM
viability, T/C [6]: 104%
viability, T/C [7]: 101%
viability, T/C [8]: 102%
viability, T/C [9]: 96.2%
viability, T/C [10]: 92.1%
viability, T/C [11]: 93.4%
viability, T/C [12]: 96.3%
viability, T/C [13]: 102%
viability, T/C [14]: 98.6%
viability, T/C [15]: 98.3%
viability, T/C [16]: 94.5%
viability, T/C [17]: 91.3%
viability, T/C [18]: 98.2%
viability, T/C [19]: 96.5%
viability, T/C [20]: 92.4%
viability, T/C [21]: 94.3%
viability, T/C [22]: 102%
viability, T/C [23]: 85.5%
viability, T/C [24]: 91.8%
viability, T/C [25]: 97.9%
viability, T/C [26]: 90.5%
viability, T/C [27]: 88.5%
viability, T/C [28]: 94.3%
viability, T/C [29]: 83.1%
viability, T/C [30]: 42.1%
viability, T/C [31]: 44.8%
viability, T/C [32]: 20.7%
viability, T/C [33]: 48.3%
viability, T/C [34]: 34.2%
viability, T/C [35]: 30.4%

CCN1CCN(Cc2ccc(Nc3ncc(F)c(-c4cc(F)c5nc(C)n(C(C)C)c5c4)n3)nc2)CC1 + C=CC(=O)N1CCN(c2nc(OCC3CCCN3C)nc3c2CCN(c2cccc4cccc(C)c24)C3)CC1CC#N
IC50 (curve of first compound, second compound 0.0316 µM): > 1000 nM
IC50 [1]: > 1000 nM
IC50 [2]: > 1000 nM
IC50 [3]: > 1000 nM
IC50 [4]: 10 nM
viability, T/C (second compound 0.0316 µM, first compound 0.00316 µM): 105%
viability, T/C (second compound 0.0316 µM, first compound 0.01 µM): 102%
viability, T/C (second compound 0.0316 µM, first compound 0.0316 µM): 91.2%
viability, T/C (second compound 0.0316 µM, first compound 0.1 µM): 89.1%
viability, T/C (second compound 0.0316 µM, first compound 0.316 µM): 89.3%
viability, T/C (second compound 0.0316 µM, first compound 1 µM): 89.6%
viability, T/C [8]: 93.1%
viability, T/C [9]: 93.6%
viability, T/C [10]: 75.9%
viability, T/C [11]: 74.5%
viability, T/C [36]: 77.7%
viability, T/C [37]: 91.2%
viability, T/C [14]: 101%
viability, T/C [15]: 88.1%
viability, T/C [16]: 78%
viability, T/C [17]: 78.4%
viability, T/C [40]: 76.6%
viability, T/C [41]: 82.5%
viability, T/C [20]: 75.7%
viability, T/C [21]: 86.1%
viability, T/C [22]: 78.1%
viability, T/C [23]: 68.5%
viability, T/C [44]: 72.4%
viability, T/C [45]: 82.3%
viability, T/C [26]: 53.1%
viability, T/C [27]: 54.1%
viability, T/C [28]: 46%
viability, T/C [29]: 41.3%
viability, T/C [48]: 49.4%
viability, T/C [49]: 47.6%

C=CC(=O)N1CCN(c2nc(OCC3CCCN3C)nc3c2CCN(c2cccc4cccc(C)c24)C3)CC1CC#N (stereo not given)
viability, T/C (compound 0.0316 µM): 103% [middle of 17 runs]
viability, T/C (compound 0.316 µM): 94.9% [middle of 17 runs]
IC50 (compound alone, run of 08/19/2021): > 3160 nM and 2890 nM and 2930 nM
IC50 (compound alone, run of 08/26/2021): > 3160 nM and 3060 nM
IC50 (compound alone, run of 09/02/2021): > 3160 nM and 2960 nM and 2890 nM
